What follows are compounds tested against Human Factor D (Homo sapiens (Human), UniProt P00746) (assay: Human Factor D assay). Settings: Table 3; Factor D inhibition, substrate Z-L-Lys-SBzl.
Chain of Human Factor D (P00746 26-253): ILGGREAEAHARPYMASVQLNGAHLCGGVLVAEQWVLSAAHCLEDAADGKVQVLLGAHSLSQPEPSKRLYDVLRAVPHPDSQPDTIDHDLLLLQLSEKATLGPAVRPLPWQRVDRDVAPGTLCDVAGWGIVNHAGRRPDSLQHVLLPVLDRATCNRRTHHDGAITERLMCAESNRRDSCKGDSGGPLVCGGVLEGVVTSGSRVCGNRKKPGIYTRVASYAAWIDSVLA
Type: biochemical
Description: Human Factor D (purified from human serum, Complement Technology, Inc.) at 80 nM final concentration is incubated with test compound at various concentrations for 5 min at room temperature in 50 mM Tris, 1M NaCl, pH 7.5. A synthetic substrate Z-L-Lys-SBzl and DTNB (Ellman's reagent) are added to final concentrations of 100 μM each. […] IC50 values are calculated by nonlinear regression of complement Factor D reaction rates as a function of test compound concentration.
`Cc1ncc(-c2ccc3c(c2)c(C(N)=S)nn3CC(=O)N2C[C@H](F)C[C@H]2C(=O)Nc2cccc(Br)n2)cn1` [Compound 527, (2S,4R)—N-(6-Bromopyridin-2-yl)-1-(2-(3-carbamothioyl-5-(2-methylpyrimidin-5-yl)-1H-indazol-1-yl)acetyl)-4-fluoropyrrolidine-2-carboxamide] was tested, and the IC50 was less than 1 µM.
With `CC(=O)c1nn(CC(=O)N2C[C@H](F)C[C@H]2C(=O)Nc2cccc(-c3ccc4c(c3)OC(F)(F)O4)c2F)c2ccc(-c3cnc(C)nc3)cc12` [Compound 528, (2S,4R)-1-(2-(3-Acetyl-5-(2-methylpyrimidin-5-yl)-1H-indazol-1-yl)acetyl)-N-(3-(2,2-difluorobenzo[d][1,3]dioxol-5-yl)-2-fluorophenyl)-4-fluoropyrrolidine-2-carboxamide] the IC50 was less than 1 µM.
Compound `CNS(=O)(=O)c1ccc(Cl)c(-c2cccc(NC(=O)[C@@H]3C[C@@H](F)CN3C(=O)Cn3nc(C(C)=O)c4cc(-c5cnc(C)nc5)ccc43)c2F)c1` [Compound 529, (2S,4R)-1-(2-(3-acetyl-5-(2-methylpyrimidin-5-yl)-1H-indazol-1-yl)acetyl)-N-(2′-chloro-2-fluoro-5′-(N-methylsulfamoyl)bi-phenyl-3-yl)-4-fluoropyrrolidine-2-carboxamide] has an IC50 of less than 1 µM.
`CC(=O)c1nn(CC(=O)N2C[C@H](F)C[C@H]2C(=O)Nc2cccc(-c3ccccc3Cl)c2F)c2ccc(N3CCn4c(nnc4C(F)(F)F)C3)cc12` [Compound 531, (2S,4R)-1-(2-(3-acetyl-5-(3-(trifluoromethyl)-5,6-dihydro-[1,2,4]triazolo[4,3-a]pyrazin-7(8H)-yl)-1H-indazol-1-yl)acetyl)-N-(2′-chloro-2-fluorobiphenyl-3-yl)-4-fluoropyrrolidine-2-carboxamide] gave an IC50 of less than 1 µM.

Same assay, conditions: Table 4; Factor D inhibition, substrate Z-L-Lys-SBzl
`CC(=O)c1nn(CC(=O)N2C[C@H](F)C[C@H]2C(=O)NC2CCN(C(=O)c3cc(Cl)c[nH]3)CC2)c2ccc(-c3cnc(C)nc3)cc12` [Compound 532, (2S,4R)-1-(2-(3-acetyl-5-(2-methylpyrimidin-5-yl)-1H-indazol-1-yl)acetyl)-N-(1-(4-chloro-1H-pyrrole-2-carbonyl)piperidin-4-yl)-4-fluoropyrrolidine-2-carboxamide] gave an IC50 of less than 1 µM.
`COCCN(C)CCN1CC(NC(=O)[C@@H]2C[C@@H](F)CN2C(=O)Cn2nc(C(C)=O)c3cc(-c4cnc(C)nc4)ccc32)CC1=O` (stereo partly drawn) [Compound 533, (2S,4R)-1-(2-(3-acetyl-5-(2-methylpyrimidin-5-yl)-1H-indazol-1-yl)acetyl)-4-fluoro-N-(1-(2-((2-methoxyethyl)(meth-yl)amino)ethyl)-5-oxopyrrolidine-3-yl)pyrrolidine-2-carboxamide] was tested, and the IC50 was greater than 10 µM.
`C=CCCCCCCCCCNc1ncc(-c2ccc3c(c2)c(C(C)=O)nn3CC(=O)O)cn1` [Compound 535, 2-(3-acetyl-5-(2-(undec-10-en-1-ylamino)pyrimidin-5-yl)-1H-indazol-1-yl)acetic acid] was tested, and the IC50 was greater than 10 µM.
In the case of `CC(=O)c1nn(CC(=O)NCc2ccccc2CC(=O)O)c2ccc(-c3cnc(C)nc3)cc12` [Compound 536, 2-(2-((2-(3-acetyl-5-(2-methylpyrimidin-5-yl)-1H-indazol-1-yl)acetamido)meth-yl)phenyl)acetic acid], the IC50 is reported as greater than 10 µM.
Work on `COC(=O)Cc1ccccc1CNC(=O)Cn1nc(C(C)=O)c2cc(-c3cnc(C)nc3)ccc21` [Compound 537, methyl 2-(2-((2-(3-acetyl-5-(2-methylpyrimidin-5-yl)-1H-indazol-1-yl)acetamido)meth-yl)phenyl)acetate] yielded an IC50 greater than 10 µM.
Work on `CC(=O)c1nn(CC(=O)N2C[C@H](F)C[C@H]2C(=O)Nc2cccc(-c3cc(F)ccc3S(C)(=O)=O)c2F)c2ccc(-c3cnc(C)nc3)cc12` [Compound 539, (2S,4R)-1-(2-(3-acetyl-5-(2-methylpyrimidin-5-yl)-1H-indazol-1-yl)acetyl)-N-(2,5′-difluoro-2′-(methylsulfonyl)-[1,1′-biphenyl]-3-yl)-4-fluoropyrrolidine-2-carboxamide] yielded an IC50 of less than 1 µM.
For `CC(=O)c1nn(CC(=O)N2C[C@H](F)C[C@H]2[C@H](O)Cc2cccc(Br)n2)c2ccc(-c3cnc(C)nc3)cc12` [Compound 540, 2-(3-Acetyl-5-(2-methylpyrimidin-5-yl)-1H-indazol-1-yl)-1-((2S,4R)-2-((R)-2-(6-bromopyridin-2-yl)-1-hydroxyethyl)-4-fluoropyrrolidin-1-yl)ethanone], the IC50 was 1 to 10 µM.
For `CC(=O)c1nn2c3ccc(cc13)-c1cnc(nc1)NCCCCCCCCCCCc1cc(Cl)c(F)c(c1)CNC(=O)[C@@H]1C[C@@H](F)CN1C(=O)C2` [Compound 541], the IC50 was greater than 10 µM.
`Cc1ncc(-c2ccc3c(c2)c(C(=N)N)nn3CC(=O)N2C[C@H](F)C[C@H]2C(=O)Nc2cccc(-c3ccccc3Cl)c2F)cn1` [Compound 542, (2S,4R)-1-(2-(3-Carbamimidoyl-5-(2-methylpyrimidin-5-yl)-1H-indazol-1-yl)acetyl)-N-(2′-chloro-2-fluoro-[1,1′-biphenyl]-3-yl)-4-fluoropyrrolidine-2-carboxamide] gave an IC50 of less than 1 µM.
`CC(=O)c1nn(CC(=O)N2CCC[C@@H](CNC(=O)c3cccc(Br)n3)C2)c2ccc(-c3cnc(C)nc3)cc12` [Compound 543, (S)—N-((1-(2-(3-Acetyl-5-(2-methylpyrimidin-5-yl)-1H-indazol-1-yl)acetyl)piperidin-3-yl)methyl)-6-bromopicolinamide] was tested, and the IC50 was greater than 10 µM.
`CC(=O)c1nn(CC(=O)N2C[C@@](F)(CN=[N+]=[N-])C[C@H]2C(=O)Nc2cccc(Br)n2)c2ccc(-c3cnc(C)nc3)cc12` [Compound 547, (2S,4R)-1-(2-(3-Acetyl-5-(2-methylpyrimidin-5-yl)-1H-indazol-1-yl)acetyl)-4-(azidomethyl)-N-(6-bromopyridin-2-yl)-4-fluoropyrrolidine-2-carboxamide] showed an IC50 of less than 1 µM.
Compound `CC(=O)c1nn(CC(=O)N2CCC[C@@H](CNC(=O)c3ncc(Br)s3)C2)c2ccc(-c3cnc(C)nc3)cc12` [Compound 548, (S)—N-((1-(2-(3-Acetyl-5-(2-methylpyrimidin-5-yl)-1H-indazol-1-yl)acetyl)piperidin-3-yl)methyl)-5-bromothiazole-2-carboxamide] has an IC50 greater than 10 µM.
In the case of `Cc1ncc(-c2ccc3c(c2)c([C@@H](C)O)nn3CC(=O)N2C[C@H](F)C[C@H]2C(=O)O)cn1` [Compound 550, (2S,4R)-4-fluoro-1-(2-(3-((R)-1-hydroxyethyl)-5-(2-methylpyrimidin-5-yl)-1H-indazol-1-yl)acetyl)pyrrolidine-2-carboxylic acid], the IC50 is reported as greater than 10 µM.
`CC(=O)c1nn(CC(=O)N2C[C@H](F)C[C@H]2C(=O)Nc2nc(Br)ccc2C)c2ccc(-c3cnc(N)nc3)cc12` [Compound 553, (2S,4R)-1-(2-(3-acetyl-5-(2-aminopyrimidin-5-yl)-1H-indazol-1-yl)acetyl)-N-(6-bromo-3-methylpyridin-2-yl)-4-fluoropyrrolidine-2-carboxamide] showed an IC50 of less than 1 µM.
`COc1ncc(-c2ccc3c(c2)c(C(C)=O)nn3CC(=O)N2C[C@H](F)C[C@H]2C(=O)Nc2nc(Br)ccc2C)cn1` [Compound 554, (2S,4R)-1-(2-(3-acetyl-5-(2-methoxypyrimidin-5-yl)-1H-indazol-1-yl)acetyl)-N-(6-bromo-3-methylpyridin-2-yl)-4-fluoropyrrolidine-2-carboxamide] gave an IC50 of less than 1 µM.
For `C/C(=N\O)c1nn(CC(=O)N2C[C@H](F)C[C@H]2C(=O)Nc2cccc(Br)n2)c2ccc(-c3cnc(C)nc3)cc12` [Compound 555, (2S,4R)—N-(6-Bromopyridin-2-yl)-4-fluoro-1-(2-(3-((E)-1-(hydroxyimino)ethyl)-5-(2-methylpyrimidin-5-yl)-1H-indazol-1-yl)acetyl)pyrrolidine-2-carboxamide], the IC50 was less than 1 µM.
Compound `CC(=O)c1nn(CC(=O)N2CCC[C@H](CNC(=O)c3cccc(Br)n3)C2)c2ccc(-c3cnc(C)nc3)cc12` [Compound 556, (R)—N-((1-(2-(3-Acetyl-5-(2-methylpyrimidin-5-yl)-1H-indazol-1-yl)acetyl)piperidin-3-yl)methyl)-6-bromopicolinamide] has an IC50 greater than 10 µM.
Work on `Cc1cccc(C[C@H](O)[C@@H]2C[C@@H](F)CN2C(=O)Cn2cc(C(N)=O)c3cc(-c4cnc(C)nc4)ccc32)n1` [Compound 559, 1-(2-((2S,4R)-4-Fluoro-2-((S)-1-hydroxy-2-(6-methylpyridin-2-yl)ethyl)pyrrolidin-1-yl)-2-oxoethyl)-5-(2-methylpyrimidin-5-yl)-1H-indole-3-carboxamide] yielded an IC50 greater than 10 µM.
For `CC(=O)c1nn(CC(=O)N2C[C@H](F)C[C@H]2C(=O)Nc2cccc(-c3ccc4c(c3Cl)NCCN4)c2F)c2ccc(-c3cnc(C)nc3)cc12` [Compound 560, (2S,4R)-1-(2-(3-Acetyl-5-(2-methylpyrimidin-5-yl)-1H-indazol-1-yl)acetyl)-N-(3-(5-chloro-1,2,3,4-tetrahydroquinoxalin-6-yl)-2-fluorophenyl)-4-fluoropyrrolidine-2-carboxamide], the IC50 was less than 1 µM.
`Cc1cccc(C[C@@H](O)[C@H]2C[C@@H](F)CN2C(=O)Cn2cc(C(N)=O)c3cc(-c4cnc(C)nc4)ccc32)n1` [Compound 561, 1-(2-((2R,4R)-4-Fluoro-2-((R)-1-hydroxy-2-(6-methylpyridin-2-yl)ethyl)pyrrolidin-1-yl)-2-oxoethyl)-5-(2-methylpyrimidin-5-yl)-1H-indole-3-carboxamide] gave an IC50 greater than 10 µM.
`CC(=O)c1nn(CC(=O)N2C[C@H](F)C[C@H]2CNC(=O)c2cccc(Cl)c2F)c2ccc(-c3cnc(C)nc3)cc12` [Compound 562, N-(((2S,4R)-1-(2-(3-acetyl-5-(2-methylpyrimidin-5-yl)-1H-indazol-1-yl)acetyl)-4-fluoropyrrolidin-2-yl)methyl)-3-chloro-2-fluorobenzamide] was tested, and the IC50 was greater than 10 µM.
`CC(=O)c1nn(CC(=O)N2C[C@H](F)C[C@H]2CNS(=O)(=O)c2cccc(Cl)c2F)c2ccc(-c3cnc(C)nc3)cc12` [Compound 563, N-(((2S,4R)-1-(2-(3-acetyl-5-(2-methylpyrimidin-5-yl)-1H-indazol-1-yl)acetyl)-4-fluoropyrrolidin-2-yl)methyl)-3-chloro-2-fluorobenzene-sulfonamide] gave an IC50 of less than 1 µM.

Source: patent publication US11407738B2 (Achillion Pharmaceuticals, Inc., priority 2015, dated 2022)
